Assay results published in patent publication US6015560A, “Antibody recognizing endothelial cell ligand for leukocyte CR3” (priority 1995, dated 2000).

Assays:
[1] = system: human umbilical vein endothelial cells; test: Adherence of neutrophils to cultured (TNF-stimulated) endothelial cells; type: cell-based; settings: peptides 0.5 mM
Experimental: (§1) Human umbilical vein endothelial cells (HUVEC, first passage, Clonetics, San Diego, Calif.) were subcultured at confluence into Terasaki tissue culture wells. After 24 hours, confluent monolayers were used for adherence assays. Monolayers were stimulated with 10 ng/ml TNF alpha (Boehringer Mannheim, Indianapolis, Ind.) at 37° C. for four hours. 30 μl of human neutrophils (10^6 /ml) were labeled with fluorescein by the method of Lo et al. (1991), J. Exp. Med. 173 1493-1500, and preincubated for 15 minutes at 37° C. with 20 μl of peptides (0.5 mM in HAP) or HAP (phosphate buffered saline containing 0.5 mg/ml human serum albumin, 3 mM glucose, and 0.3 U/ml aprotinin) as a control buffer. For some experiments, endothelial cells were pretreated from 10 minutes with Factor X or antibodies against Factor X receptor (EPR-1; Altieri et al. (1990), J. Immunol. 145, 246-253) 12H1 and 9D4 (obtained from Dr. D. Altieri, Scripps Research Institute, Lajolla, Calif.) and then washed. Neutrophils were allowed to adhere to the monolayer for 15 mins. at 37° C. and unbound cells were removed by submersion of the plate in PBS buffer. The number of adherent neutrophils was counted in a 40× microscope field and expressed as a percentage of adherence in control wells with neutrophils treated with HAP buffer alone. The mAb IB4 against CD18 (50 μg/ml; Merck Inc., Rahway, N.J.) served as a positive control.
(§2) The procedures for determining the neutrophil adherence to cultured endothelial cells and the transendothelial migration of neutrophils were identical with those of Example 9. Control values were the same as those shown in Example 9.

[2] = system: neutrophils; test: Transendothelial migration of neutrophils; type: cell-based, human; settings: peptides 0.01 mM
Experimental: Transendothelial migration of neutrophils was studied based on a method described by Muller et al. (1992), J. Exp. Med. 176: 819-828. Briefly, human neutrophils suspended in ice-cold Hanks balanced salt solution (HBSS) containing Ca^++ and Mg^++ (Sigma) were fluoresceinated by adding 3.3 μl/ml 5-(and 6-)carboxyfluorescein diacetate, succinimidyl ester (CFSE, Molecular Probes Inc., Oreg.). After incubation for 30 mins. on ice, neutrophils were washed twice in cold HBSS with Ca^++ and Mg^++ and resuspended in cold Medium 199 (M199, Sigma) to a final concentration of 10^6 /ml. Human umbilical vein endothelial cells were subcultured at confluence into 96-well tissue culture plates (Becton Dickinson Labware, Lincoln Park, N.J.) that were coated with hydrated collagen gel (Vitrogen; Collagen Corporation, Palo Alto, Calif.) and fibronectin. Endothelial cells were stimulated with 10 ng/ml TNF-alpha for 4 hours and washed three times with warm M199. Neutrophils (10^6 /ml) were preincubated with 0.01 mM of peptides or with 1 μM of native FHA in M199 for 5 mins. on ice before they were added in 100 μl aliquots to the endothelial cells. For positive control, neutrophils were pre-incubated with 25 μg/ml anti-CD18 mAb IB4. For negative control, neutrophils were treated with 25 μg/ml mAb W6/32 against HLA class I antigen (Dako, Carpinteria, Calif.). The cells were incubated for 1 hour at 37° C., 5% CO2. To terminate transmigration, the supernatant fluid was aspirated and the wells were filled with warm 1 mM EGTA (Sigma) in HBSS without Ca and Mg. The plates were covered with plate sealers (Dynatech, Alexandria, Va.) and centrifuged in an inverted position at 250 g for 3 mins. at room temperature. To remove residual non-transmigrated neutrophils from the endothelial cells, monolayers were washed twice with 200 μl of warm Hanks solution without Ca and Mg. Fluorescence was quantitated using a fluorescence counter (Millipore Cytofluor™ 2300). The percentage of transmigrated neutrophils was determined by comparing the amount of fluorescence of test wells with that measured in collagen- and fibronectin-coated wells without endothelial cells. […] Percent inhibition of transendothelial migration of neutrophils was calculated by comparing the number of transmigrated cells in wells containing neutrophils treated with peptide to neutrophils treated with M199 alone and arbitrarily set at 100% transendothelial migration (TEM).
as §2

[3] = system: leukocytes in CSF; test: Rabbit meningitis model: leukocyte migration into CSF; type: in vivo; settings: for mean leukocyte concentration in CSF: peptides 10 μM i.v.; for reduction of CSF leukocytosis: peptides 10 μM, FHA 0.1 μM
Experimental: (§3) The rabbit model was performed according to an established protocol. Specific pathogen free, New Zealand white rabbits (2 kg; Hare Marland, Nutley, N.J.) were anesthetized with valium (2.5 mg/kg, subcutaneously, Hoffman-LaRoche, Nutley, N.J.), ketamine (35 mg/kg, intramuscularly, Aveco, Fort Dodge, Iowa) and xylazine (5 mg/kg, intramuscularly, Miles Laboratories, Shawnee, Kans.) and a helmet of dental acrylic was affixed to the calvarium. Twenty four hours later, the rabbits were anesthetized with ethyl carbamate (1.75 g/kg; Aldrich Chemical Co., Milwaukee, Wis.) and pentobarbital (15 mg/kg; Abbott Laboratories, Abbott Park, Ill.) and placed in a stereotaxic frame. A spinal needle was introduced into the cisterna magna and 300 μl of CSF was withdrawn. The animals were challenged intracisternally with 10^8 heat killed, unencapsulated pneumococcus strain R6 introduced in 200 μl of saline (time 0). One hour later, animals were treated with peptides dissolved in 1 ml of saline by intravenous injection into the right marginal ear vein. The concentration of FHA was 0.1 μM and that of the FHA Ia, Factor X II, and scrambled FHA II peptides was 10 μM. For the acetyl-FHA II, acetyl/amide-FHA II, dimer of FHA II and trimer of FHA II peptides, the concentration was 10^-3 μM. The concentration of FHA II is given in the results section. Samples of CSF were withdrawn at hourly intervals after pneumococcal inoculation and leukocyte density was measured using a cell counter (Coulter Electronics Inc., Hialeah, Fla.). CSF samples were centrifuged at 10,000×g for 5 minutes and the supernatant was stored at -70° C. until assayed for protein concentration using the bicinchoninic acid method (BCA Kit, Pierce Chemical Co., Rockford, Ill.) and for lactate concentration (Lactate Detection Kit, Sigma, St. Louis, Mo.). Statistically significant differences between treatments were determined by a one way analysis of variance test.
The anti-inflammatory effects of the administered peptides were assessed in the rabbit model for meningitis by the procedures described in Example 10. The animals received 1 ml of 1 uM peptide intravenously. In a slight departure from the protocol described in Example 10, samples of blood were drawn from the left marginal ear vein 30 minutes after the administration of the peptides to determine peripheral leukocyte concentrations.

[4] = system: blood brain barrier; test: Rabbit meningitis model: CSF protein and lactate (blood brain barrier permeability); type: in vivo; settings: 10 μM peptides, 0.1 μM FHA
Experimental: as §3
Loss of barrier function of the cerebral capillary endothelium during inflammation is reflected by an influx of serum proteins into the CSF. […] To examine if the peptides were able to ameliorate these measures of cerebral injury, CSF protein and lactate concentrations were measured hourly in peptide-treated and control animals (Table 10).
Leukocyte migration into the CSF in bacterial meningitis is associated with loss of barrier function of the cerebral capillary endothelium, resulting in influx of serum proteins into the CSF. To determine whether FHA peptides were able to prevent this leukocyte-dependent injury, protein concentrations in the CSF were measured throughout the course of inflammation in peptide-treated and control animals.

[5] = system: endothelial cells; test: Cooperative inhibition of neutrophil adherence by peptide plus antibody; type: cell-based, human; settings: for additive reduction of neutrophil adherence: together with IB4 (50 μg/ml)
Experimental: as §1
The ability of FHA peptides and anti-CD18 or anti-Factor X receptor antibodies to interact cooperatively to inhibit neutrophil adherence to endothelial cells was assessed by measuring neutrophil adherence to endothelial cells in the presence of antibody as well as antibody plus peptide. Anti-CD18 mAb IB4 was added to leukocytes at 10 μg/ml 10 min before the assay. Anti-Factor X receptor mAb 12H1 (10 μl of ascites) or 9D4 (10 μg/ml) were added to the endothelial cell monolayers 10 min before the assay. The peptides were added at 5 μg/ml. The results are shown in Table 8 where the numerical values are in % of control binding.

[6] = system: Factor Xa; test: Generation of Factor Xa by monocytes (THP-1 cells); type: cell-based; settings: 0.5 mM; for reduction of Factor Xa production: 20 min
Experimental: Factor Xa generation was determined by a modification of the method of Miletich et al. (1978), J. Biol. Chem. 253: 6908-6916. THP-1 cells (ATCC; 3×10^7 /ml) resuspended in RPMI 1640 (Bio Whittaker, Walkersville, Md.) were incubated with 100 μM ADP (Sigma), 2.5 mM CaCl2, 1 or 5 μg/ml Factor X (Hematologic Technologies Inc.) and 0.5 mM peptides at room temperature. After 20 minutes, 100 μl of the reaction mixture was transferred to 37° C. and supplemented with 100 μl of bovine factor VII- and Factor X-deficient plasma (Sigma). Coagulation was initiated by adding 100 μl of 25 mM CaCl2 and the clotting time was determined. Factor Xa procoagulant activity (ng/ml) was calculated by means of a standard curve constructed by serial concentrations of Factor Xa (Hematologic Technologies Inc.) from 50 to 250 ng/ml.

[7] = system: C3bi; test: Inhibition of binding of 12.1F9 to E-C3bi by peptides; design: species or system human; settings: for block of binding of 12.1F9 to C3bi: e-c3bi on antibody-coated wells
Source text: The antibody 12.1F9 maps to the region 1279-2011 of FHA. When the derived amino acid sequence of this region was compared to that of C3, a region of 11 amino acids with similar sequence was found between FHA residues 1408-1418 and C3 residues 1187-1197 (Table 14). […] However, the FHA-20-mer and the homologous C3-derived peptide blocked binding by up to 60%.

[8] = peptide 5 μg/ml plus 9D4 10 μg/ml
[9] = peptide 5 μg/ml plus 12H1 10 μl of ascites
[10] = peptide 5 μg/ml plus IB4 10 μg/ml

“DEETVK [scrambled FHA II, reference compound]” was tested, and the “interference with neutrophil adherence (in words)” value (“interference” below) [1] was “did not interfere with neutrophil binding”, the “% Inhibition of TEM” value [2] was 4 ± 5% and the “mean leukocyte concentration in CSF” value ([3]; 7 hours) was 6431±1380 /μl CSF.

For ETKEVDG [FHA II], the “anti-inflammatory effect (in words)” value ([3]; 10^-3 μM i.v.) was “ineffective”, the “mean leukocyte concentration in CSF” value ([3]; 7 hours) was 2645±1412 /μl CSF and the “leukocyte density vs control (in words)” value ([3]; 7 hours, 10^-1 μM) was “statistically significantly different from control”. For the same substance, the “reduction of CSF leukocytosis” value [3] was over 60%, the “protein influx into CSF and lactate generation (in words)” value [4] was “significantly reduced protein influx into the CSF and generation of lactate” and the “% of control binding” value [5, 8] was 45 ± 9 % of control binding. The “% of control binding” value [5, 9] was 67 ± 13 % of control binding, the “% of control binding” value [5, 10] was 11 ± 6 % of control binding and the “% of control binding” value ([5]; peptide 5 μg/ml, no antibody) was 40 ± 23 % of control binding. The “additive reduction of neutrophil adherence” value [5] was over 80±10% and the “Factor Xa generation (in words)” value [6] was “did not interfere with the generation of Factor Xa procoagulant activity”.

For “YTVSADAIALA (YTVAIAGYALA) [FHA 1408-1418]”, the “block of binding of 12.1F9 to C3bi” value [7] was “up to 60%”.

For GRTRG [FHA III], the “interference” value [1] was “less effective than the corresponding Factor X derived peptide”, the “% Inhibition of TEM” value [2] was 5 ± 6% and the “reduction of Factor Xa production” value [6] was 74%.

LGYQAK [FHA Ia] was tested, and the “interference” value [1] was “significantly more active than the Factor X peptide I”, the “mean leukocyte concentration in CSF” value ([3]; 7 hours) was 1640±1210 /μl CSF and the “reduction of CSF leukocytosis” value [3] was over 60%. For the same substance, the “protein influx into CSF and lactate generation (in words)” value [4] was “no significant reduction”, the “% of control binding” value [5, 8] was 63 ± 17 % of control binding and the “% of control binding” value [5, 9] was 64 ± 12 % of control binding. For the same substance, the “% of control binding” value [5, 10] was 20 ± 7 % of control binding, the “% of control binding” value ([5]; peptide 5 μg/ml, no antibody) was 63 ± 12 % of control binding and the “additive reduction of neutrophil adherence” value [5] was over 80±10%.

With YTVAIAGYALA [C3-pep 1187-1197] the “block of binding of 12.1F9 to C3bi” value [7] was “up to 60%”.

“IDRSMKTRG [Factor X III, reference compound]” was tested, and the “% Inhibition of TEM” value [2] was 5 ± 7% and the “Factor Xa generation (in words)” value [6] was “substantial reduction that did not reach statistical significance”.

In the case of “GLYQAKRFKVG [Factor X I, reference compound]”, the “Factor Xa generation (in words)” value [6] is reported as “substantial reduction that did not reach statistical significance”.

With “GYDTKQEDG [Factor X II, reference compound]” the “mean leukocyte concentration in CSF” value ([3]; 7 hours) was 1622±521 /μl CSF, the “reduction of CSF leukocytosis” value [3] was over 60% and the “protein influx into CSF and lactate generation (in words)” value [4] was “no significant reduction”. For the same substance, the “reduction of Factor Xa production” value [6] was over 90%.

In the case of VTVGRGDPHQG [FHA RGD], the Adherence index ([7]; peptides 50 μg/ml, normalized to a control value of 100) is reported as 85 ± 9.

GLIQGRSVKVD [FHA Ib] was tested, and the “% Inhibition of TEM” value [2] was 7 ± 10% and the “reduction of Factor Xa production” value [6] was 81%.
